In PMC8146883, “A New Thermophilic Ene-Reductase from the Filamentous Anoxygenic Phototrophic Bacterium Chloroflexus aggregans” (Microorganisms, 2021):

Molecular target: T1, CaOYE (Chloroflexus aggregans, UniProt B8G5D6)
T1 construct: gene Cagg_2779; full-length ORF in pET-28a(+) (NdeI/BamHI), N-terminal His6-tag, E. coli BL21(DE3); model visible Met1 to Trp354; monomer in solution, dimer in crystal
Experiment: X-ray crystal structure, […] Å
Assay type: binding
Details: non-covalent, active site; crystals from 100 mM HEPES pH 7.0, 1.1 M sodium malonate

T1 sequence (B8G5D6 whole entry): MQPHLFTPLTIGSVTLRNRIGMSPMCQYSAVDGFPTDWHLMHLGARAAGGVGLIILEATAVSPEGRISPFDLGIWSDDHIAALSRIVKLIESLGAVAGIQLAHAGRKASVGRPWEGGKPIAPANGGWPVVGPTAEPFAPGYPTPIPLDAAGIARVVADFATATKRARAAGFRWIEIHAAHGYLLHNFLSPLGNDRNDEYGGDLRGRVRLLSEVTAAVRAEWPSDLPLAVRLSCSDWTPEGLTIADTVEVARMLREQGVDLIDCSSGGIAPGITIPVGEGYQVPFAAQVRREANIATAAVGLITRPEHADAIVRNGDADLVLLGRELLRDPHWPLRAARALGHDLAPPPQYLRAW

Cc1cc2nc3c(=O)[nH]c(=O)nc-3n(C[C@H](O)[C@H](O)[C@H](O)COP(=O)(O)O)c2cc1C [FMN]
X-ray crystal structure, 2.40 Å: The enzyme accommodates one molecule of FMN cofactor on the top of the β-barrel core
